We go through 1 molecule from ChEMBL document CHEMBL3763135, “Synthesis and evaluation of thiophene-based guanylhydrazones (iminoguanidines) efficient against panel of voriconazole-resistant fungal isolates” (Bioorg Med Chem, 2016).

The nature of data set [1]: Hemolytic effect in sheep RBC assessed as release of hemoglobin at MIC after 1 hr. The data set is classed as ADME, cell-based, Ovis aries, Erythrocyte. As to conditions: sheep red blood cells, read-out: Activity.
Data set [2] has as its system Pichia kudriavzevii. Put plainly: Antibiofilm activity against Pichia kudriavzevii ATCC 34135 assessed as disruption of preformed biofilm after 24 hrs by concanavalin A-FITC-staining based fluorescence microscopic analysis. The data set is classed as functional.
Another data set concerns Microsporum canis. The data set is described as follows: Antifungal activity against Microsporum canis DMT2 by broth dilution method. It is filed as functional. (In general: Dilution methods test growth across graded concentrations, often in twofold steps.)
The test system of the next data set is Aspergillus fumigatus. Put plainly: Antifungal activity against Aspergillus fumigatus ATCC 13073 by broth dilution method. It is filed as functional.
In data set [3] the test system is Candida parapsilosis. The data set is described as follows: Antibiofilm activity against Candida parapsilosis C27 assessed as disruption of preformed biofilm after 24 hrs by concanavalin A-FITC-staining based fluorescence microscopic analysis. The data set is classed as functional.
The test system of data set [4] is Pichia kudriavzevii. Put plainly: Antifungal activity against Candida krusei ATCC 34135 by broth dilution method. The data set is classed as functional.
Data set [5] deals with Candida albicans. The data set is described as follows: Antibiofilm activity against Candida albicans assessed as inhibition of Spider medium-induced hyphae formation at sub-MIC after 24 hrs by propidium iodide and FITC-conjugated concanavaline A staining based fluorescence microscopy. The data set is classed as functional, organism-based.
The subject of data set [6] is Candida albicans. Put plainly: Induction of DNA intercalation with Candida albicans genomic DNA at 25 ug/ml after 12 hrs by ethidium bromide staining based gel electrophoresis method.
Data set [7] concerns Candida albicans. The data set is described as follows: Antifungal activity against Candida albicans ATCC 10231 by broth dilution method. It is filed as functional.
Another data set relates to Fusarium oxysporum. Put plainly: Antifungal activity against Fusarium oxysporum AB18 by broth dilution method. It is filed as functional.
Data set [8] is described as follows: Hemolytic effect in sheep RBC assessed as release of hemoglobin at cytotoxic IC50 after 1 hr. The data set is classed as cell-based, Ovis aries, Erythrocyte. The conditions noted are these: sheep red blood cells, read-out: Activity.
Data set [9] concerns Candida parapsilosis. The data set is described as follows: Antifungal activity against Candida parapsilosis C27 by broth dilution method. It is filed as functional. The conditions noted are these: Lodderomyces parapsilosis.
The subject of data set [10] is Candida albicans. Put plainly: Antibiofilm activity against Candida albicans ATCC 10231 assessed as disruption of preformed biofilm after 24 hrs by concanavalin A-FITC-staining based fluorescence microscopic analysis. It is filed as functional.
The nature of data set [11]: Induction of membrane damage in PC/PS/E liposome assessed as calcein release at MIC after 30 mins by fluorescence-based liposome leakage assay. It is filed as functional.
Data set [12] is described as follows: Selectivity index, ratio of IC50 for human MRC5 cell to MIC for Candida albicans CA5.
Data set [13] relates to Trichophyton mentagrophytes. Put plainly: Antifungal activity against Trichophyton mentagrophytes DMT4 by broth dilution method. It is filed as functional.
For data set [14], the system named is Candida albicans. The data set is described as follows: Antifungal activity against Candida albicans CA5 by broth dilution method. The data set is classed as functional.
The subject of a further data set is MRC5. Put plainly: Cytotoxicity against human MRC5 cells after 48 hrs by MTT assay. The data set is classed as cell-based. As to conditions: MRC5, 48 h. A general note: Formazan colour is commonly taken as a measure of viable cells.

Each structure is given as a SMILES string. Active and inactive are the calls of the source. A value given as a limit tells only on which side of the number the result lay.

With `Cl.Cl.N=C(N)N/N=C/c1ccc(-c2ccc(-c3ccc(/C=N/NC(=N)N)cc3)s2)cc1`, the hemolysis at 1 h in data set [1] and in [8] was not above 10% throughout. Besides, the results for the MBEC with Pichia kudriavzevii [2], in the data set on Candida parapsilosis [3] and in the data set with Candida albicans [10] were 1000 µg/mL, 1000 µg/mL and 250 µg/mL, respectively. For the same molecule, the MIC is 0.25 µg/mL against Microsporum canis; 25 µg/mL in the data set with Aspergillus fumigatus; 50 µg/mL with Pichia kudriavzevii [4]; 3.9 µg/mL with Candida albicans [7]; more than 250 µg/mL in the data set on Fusarium oxysporum; 50 µg/mL against Candida parapsilosis [9]. Further, the minimal inhibitory concentration (MIC) (in [13]; against Candida albicans [14]) was 0.25 µg/mL in each case. Besides, the result in the data set on Candida albicans [5] was inactive. Further, in the data set on Candida albicans [6], the outcome was Active. The Activity in data set [11] is 7%. Also, the “Selectivity Index” value in [12] is listed as 20. The molecule also displayed an IC50 in the data set with MRC5 of 5 µg/mL.

By MIC is commonly meant the smallest concentration in the dilution series that meets the test's criterion for growth inhibition. Low readings indicate inhibition by little substance, high ones a need for much substance. By IC50 is commonly meant the concentration needed to halve the response being measured.
